# According to US12319664B2, “Herbicidally active 3-phenylisoxazoline-5-carboxamides of cyclopentenylcarboxylic acid derivatives” (Bayer Aktiengesellschaft, priority 2018, dated 2025):
# Key:
# STEME [1] = assay: Post-emergence herbicidal action against STEME; type: in vivo, Stellaria media; conditions: application rate 80 g/ha, rated visually about 3 weeks after treatment
# Summary of the method: (§1)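 Foliar application at 600 l/ha water, 0.5% additive, WP or EC formulation; plants at one-leaf stage in greenhouse sandy loam pots. Scored visually ~3 weeks post-treatment, 0–100% relative to untreated plants.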
# HORMU [2] = assay: Post-emergence herbicidal action against HORMU; type: in vivo, Hordeum murinum; conditions: application rate 80 g/ha
# Summary of the method: as §1
# AVEFA [3] = assay: Post-emergence herbicidal action against AVEFA; type: in vivo, Avena fatua; conditions: application rate 80 g/ha, rated visually after about 3 weeks
# Summary of the method: as §1
# ALOMY [4] = assay: Post-emergence herbicidal action against ALOMY; type: in vivo, Alopecurus myosuroides; conditions: application rate 80 g/ha, rated visually after about 3 weeks
# Summary of the method: as §1
# POLCO [5] = assay: Post-emergence herbicidal action against POLCO; type: in vivo, Polygonum convolvulus; conditions: application rate 80 g/ha, rated visually about 3 weeks after treatment
# Summary of the method: as §1
# LOLRI [6] = assay: Post-emergence herbicidal action against LOLRI; type: in vivo, Lolium rigidum; conditions: application rate 80 g/ha, rated visually after about 3 weeks
# Summary of the method: as §1
# SETVI [7] = assay: Post-emergence herbicidal action against SETVI; type: in vivo, Setaria viridis; conditions: application rate 80 g/ha, rated visually after about 3 weeks
# Summary of the method: as §1
# AMARE [8] = assay: Post-emergence herbicidal action against AMARE; type: in vivo, Amaranthus retroflexus; conditions: application rate 80 g/ha, rated visually about 3 weeks after treatment
# Summary of the method: as §1
# PHBPU = assay: Post-emergence herbicidal action against PHBPU; type: in vivo, Pharbitis purpurea; conditions: application rate 80 g/ha, rated visually about 3 weeks after treatment
# Summary of the method: as §1
# VIOTR = assay: Post-emergence herbicidal action against VIOTR; type: in vivo, Viola tricolor; conditions: application rate 80 g/ha, rated visually about 3 weeks after treatment
# Summary of the method: as §1
# ABUTH = assay: Post-emergence herbicidal action against ABUTH; type: in vivo, Abutilon theophrasti; conditions: application rate 80 g/ha, rated visually about 3 weeks after treatment
# Summary of the method: as §1
# ECHCG = assay: Post-emergence herbicidal action against ECHCG; type: in vivo, Echinochloa crus-galli; conditions: application rate 80 g/ha, rated visually after about 3 weeks
# Summary of the method: as §1
# VERPE = assay: Post-emergence herbicidal action against VERPE; type: in vivo, Veronica persica; conditions: application rate 80 g/ha
# Summary of the method: as §1
# MATIN = assay: Post-emergence herbicidal action against MATIN; type: in vivo, Matricaria inodora; conditions: application rate 80 g/ha, rated visually about 3 weeks after treatment
# Summary of the method: as §1
# LOLRI [9] = assay: Pre-emergence herbicidal action against LOLRI; type: in vivo, Lolium rigidum; conditions: application rate 80 g/ha, scored visually after about 3 weeks vs untreated controls (100% = plants have died, 0% = like control plants)
# Excerpt: (§2) 1. Pre-emergence herbicidal action against harmful plants and crop plant compatibility Seeds of monocotyledonous and dicotyledonous weed plants and crop plants are placed in plastic or wood-fibre pots and covered with soil. The compounds of the invention, formulated in the form of wettable powders (WP) or as emulsion concentrates (EC), are then applied onto the surface of the covering soil as aqueous suspension or emulsion with addition of 0.5% additive at a water application rate of 600 l/ha (converted). After the treatment, the pots are placed in a greenhouse and kept under good growth conditions for the trial plants. After about 3 weeks, the effect of the preparations is scored visually in comparison with untreated controls as percentages. For example, 100% activity=the plants have died, 0% activity=like control plants. [table]
# AVEFA [10] = assay: Pre-emergence herbicidal action against AVEFA; type: in vivo, Avena fatua; conditions: application rate 80 g/ha, scored visually after about 3 weeks vs untreated controls (100% = plants have died, 0% = like control plants)
# Excerpt: as §2
# HORMU [11] = assay: Pre-emergence herbicidal action against HORMU; type: in vivo, Hordeum murinum; conditions: application rate 80 g/ha
# Excerpt: as §2
# POLCO [12] = assay: Pre-emergence herbicidal action against POLCO; type: in vivo, Polygonum convolvulus; conditions: application rate 80 g/ha
# Excerpt: as §2
# ALOMY [13] = assay: Pre-emergence herbicidal action against ALOMY; type: in vivo, Alopecurus myosuroides; conditions: application rate 80 g/ha, scored visually after about 3 weeks vs untreated controls (100% = plants have died, 0% = like control plants)
# Excerpt: as §2
# SETVI [14] = assay: Pre-emergence herbicidal action against SETVI; type: in vivo, Setaria viridis; conditions: application rate 80 g/ha, scored visually after about 3 weeks vs untreated controls (100% = plants have died, 0% = like control plants)
# Excerpt: as §2
# STEME [15] = assay: Pre-emergence herbicidal action against STEME; type: in vivo, Stellaria media; conditions: application rate 80 g/ha
# Excerpt: as §2
# AMARE [16] = assay: Pre-emergence herbicidal action against AMARE; type: in vivo, Amaranthus retroflexus; conditions: application rate 80 g/ha
# Excerpt: as §2
Compound,Herbicidal action against [%] STEME (STEME [1]) [%],Herbicidal action against [%] HORMU (HORMU [2]) [%],Herbicidal action against [%] AVEFA (AVEFA [3]) [%],Herbicidal action against [%] ALOMY (ALOMY [4]) [%],Herbicidal action against [%] POLCO (POLCO [5]) [%],Herbicidal action against [%] LOLRI (LOLRI [6]) [%],Herbicidal action against [%] SETVI (SETVI [7]) [%],Herbicidal action against [%] AMARE (AMARE [8]) [%],Herbicidal action against [%] PHBPU (PHBPU) [%],Herbicidal action against [%] VIOTR (VIOTR) [%],Herbicidal action against [%] ABUTH (ABUTH) [%],Herbicidal action against [%] ECHCG (ECHCG) [%],Herbicidal action against [%] VERPE (VERPE) [%],Herbicidal action against [%] MATIN (MATIN) [%],other results
CCOC(=O)C1C=CC(NC(=O)C2(C(F)(F)F)CC(c3cc(F)cc(F)c3)=NO2)C1 (mixture of isomers) [Example I-058],90,100,100,100,90,90,90,90,80,90,90,100,80,90,
COC(=O)C1C=CC(NC(=O)C2(C(F)(F)F)CC(c3cc(F)cc(F)c3)=NO2)C1 (mixture of isomers) [Example I-063],90,90,100,90,90,100,90,90,80,80,90,90,80,90,
CN(C)C(=O)C1=CCC(NC(=O)C2(C)CC(c3cccc(F)c3)=NO2)C1 (mixture of isomers) [IV-01],,,,,,,,,,,,,,,Herbicidal action against [%] LOLRI (LOLRI [9]): 100%; Herbicidal action against [%] AVEFA (AVEFA [10]): 90%; Herbicidal action against [%] HORMU (HORMU [11]): 90%; Herbicidal action against [%] POLCO (POLCO [12]): 90%; Herbicidal action against [%] ALOMY (ALOMY [13]): 90%; Herbicidal action against [%] SETVI (SETVI [14]): 90%; Herbicidal action against [%] STEME (STEME [15]): 90%; Herbicidal action against [%] AMARE (AMARE [16]): 90%
COC(=O)C(NC(=O)C1C=CC(NC(=O)C2(C)CC(c3cc(F)cc(F)c3)=NO2)C1)C(C)C (mixture of isomers) [II-11],90,90,90,90,90,90,90,90,90,90,90,90,90,90,
COCCOC(=O)[C@@H]1C=C[C@H](NC(=O)[C@@]2(C(F)(F)F)CC(c3cc(F)cc(F)c3)=NO2)C1 [Example I-076],90,80,100,100,90,100,90,90,80,80,80,90,80,80,
CCOC(=O)C1C=CC(NC(=O)C2(C(F)(F)F)CC(c3cc(Cl)cc(Cl)c3)=NO2)C1 (mixture of isomers) [Example I-038],90,80,100,90,80,90,90,80,80,80,80,80,90,90,
CC1(C(=O)NC2C=CC(C(=O)NS(C)(=O)=O)C2)CC(c2cccc(F)c2)=NO1 (mixture of isomers) [II-13],,,,,,,,,,,,,,,Herbicidal action against [%] STEME (STEME [15]): 100%
